Experimental data published in patent publication US9573966B2, “Anti-cancer activity of novel bicyclic heterocycles” (Katholieke Universiteit Leuven, K.U.Leuven R&D, priority 2010, dated 2017).

Tests used:
[1] = tested on: HSB-2 cells; assay: Inhibition of HSB-2 leukemic cell line proliferation (WST-1); format: cell-based, human; conditions: Homo sapiens, HSB2, 48 h, cytotoxicity on HSB-2 cells, two days incubation, WST-1 read-out
Experimental: (§1) HSB2 cell line, a human acute lymphoblastic leukemia (ATCC; CCL-120.1) cell line, was grown in RPMI-1640 medium (Lonza, Belgium) supplemented with 10% fetal calf serum (Hyclone, US) and antibiotics. Exponential growing phase cells were seed in flat bottom 96-well microplates (TTP, Switzerland) at 50000 cells per well in 220 μl of medium with compounds (in different concentrations) and incubated for two days at 37° C., 5% CO2. After incubation, 100 μl of supernatant were removed and 10 μl of WST-1 (Roche, Switzerland) were added. After 2 hour incubation at 37° C., 5% CO2, optical densities were measured at 450 nm. Proliferation is calculated with respect of control points (no compound and treatment with Triton X100 to have maximum and minimum proliferation data). The IC50 was determined from a graph with at least four points, each derived from the mean of at least 2 experiments. […] The results are shown in Table 1 for a number of compounds.

[2] = tested on: HL-60 cells; assay: Inhibition of HL-60 leukemic cell line proliferation (WST-1); format: cell-based, human; conditions: Homo sapiens, 48 h; cytotoxicity on HL-60 cells, two days incubation, WST-1 read-out
Experimental: as §1, with “HL-60 cell” for “HSB2 cell”, “human promyelocytic” for “human acute lymphoblastic”, “(ATCC; CCL-240)” for “(ATCC; CCL-120.1)”, “Table 2” for “Table 1”

| Structure (SMILES) | IC50 [1] [µM] | IC50 [2] [µM] |
| --- | --- | --- |
| Nc1nc(N2CCN(C(=O)COc3ccc(Cl)cc3)CC2)c2nc(-c3ccc(Cl)cc3)sc2n1 [Example 123, 5-amino-7-[4-(4-chlorophenoxyacetyl)piperazin-1-yl]-2-(4-chlorophenyl)thiazolo[5,4-d]pyrimidine] | 3.73 | 1.2 |
| Nc1nc(N2CCN(C(=O)COc3ccc(OC(F)(F)F)cc3)CC2)c2nc(-c3cccnc3)sc2n1 [Example 273, 1-(4-(5-amino-2-(pyridin-3-yl)thiazolo[5,4-d]pyrimidin-7-yl)piperazin-1-yl)-2-(4-trifluoromethoxyphenoxy)ethanone] | 0.81 | 4.84 |
| Nc1nc(N2CCN(C(=O)COc3ccc(Cl)cc3)CC2)c2nc(C3CC3)[nH]c2n1 [Example 398, 1-(4-(2-amino-8-cyclopropyl-9H-purin-6-yl)piperazin-1-yl)-2-(4-chlorophenoxy)ethanone] | 4.78 | 6.08 |
| Cc1ccc(-c2nc3c(N4CCN(C(=O)COc5ccc(Cl)cc5)CC4)nc(N)nc3[nH]2)cc1 [Example 396, 1-(4-(2-amino-8-p-tolyl-9H-purin-6-yl)piperazin-1-yl)-2-(4-chlorophenoxy)ethanone] | 0.49 | 4.97 |
| Nc1nc(N2CCN(C(=O)COc3cccc(Cl)c3)CC2)c2nc(-c3ccc(F)cc3)sc2n1 [Example 214, 1-(4-(5-amino-2-(4-fluorophenyl)thiazolo[5,4-d]pyrimidin-7-yl)piperazin-1-yl)-2-(3-chlorophenoxy)ethanone] | 0.73 | 6.02 |
| Nc1nc(N2CCN(C(=O)COc3ccc(Cl)cc3)CC2)c2nc(CCc3ccccc3)oc2n1 [Example 189, 5-amino-2-(2-phenylethyl)-7-[4-(4-chlorophenoxyacetyl)piperazin-1-yl]oxazolo[5,4-d]pyrimidine] | > 10 | > 10 |
| COc1ccc(OCC(=O)N2CCN(c3nc(N)nc4sc(-c5ccccc5)nc34)CC2)cc1 [Example 208, 1-(4-(5-amino-2-phenylthiazolo[5,4-d]pyrimidin-7-yl)piperazin-1-yl)-2-(4-methoxyphenoxy)ethanone] | 0.06 | 0.07 |
| COc1cccc(-c2nc3c(N4CCN(C(=O)COc5ccc(Cl)cc5)CC4)nc(N)nc3s2)c1 [Example 124, 5-amino-7-[4-(4-chlorophenoxyacetyl)piperazin-1-yl]-2-(3-methoxyphenyl)thiazolo[5,4-d]pyrimidine] | 2.29 | 0.96 |
| COCc1nc2c(N3CCN(C(=O)COc4ccc(Cl)cc4)CC3)nc(N)nc2o1 [Example 186, 5-amino-7-[4-(4-chlorophenoxyacetyl)piperazin-1-yl]-2-methoxylmethyloxazolo[5,4-d]pyrimidine] | > 10 | > 10 |
| Nc1nc(N2CCN(C(=O)COc3ccc(Cl)cc3)CC2)c2nc(C3CC3)oc2n1 [Example 185, 5-amino-2-cyclopropyl-7-[4-(4-chlorophenoxyacetyl)piperazin-1-yl]-oxazolo[5,4-d]pyrimidine] | > 10 | > 10 |
| Nc1nc(N2CCN(C(=O)COc3ccc(Cl)cc3)CC2)c2nc(CCc3ccc(F)cc3)oc2n1 [Example 172, 1-(4-(5-amino-2-(4-fluorophenethyl)oxazolo[5,4-d]pyrimidin-7-yl)piperazin-1-yl)-2-(4-chlorophenoxy)ethanone] | > 10 | > 10 |
| Nc1nc(N2CCN(C(=O)CCc3ccccc3)CC2)c2cc(-c3ccc(F)cc3)sc2n1 [Example 343, 1-(4-(2-amino-6-(4-fluorophenyl)thieno[2,3-d]pyrimidin-4-yl)piperazin-1-yl)-3-phenylpropan-1-one] | > 10 | > 10 |
| Nc1nc(N2CCN(C(=O)COc3ccc(Cl)cc3)CC2)c2nc(-c3ccc(F)cc3)[nH]c2n1 [Example 389, 1-(4-(2-amino-8-(4-fluorophenyl)-9H-purin-6-yl)piperazin-1-yl)-2-(4-chlorophenoxy)ethanone] | – | > 10 |
